Measured values published in PubChem BioAssay (NCI).
“And” between values parts separate entries of the source, which are not always exact repeats. Identical values can stand only once.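 Interpolation was linear, between the two tested concentrations surrounding the appropriate level; five concentrations were tested over 48 hours in 96-well plates. Here, GI50 denotes the concentration required for 50% inhibition of growth. TGI is the concentration that stops growth completely.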

Experiments:
Test in all cases: growth of human tumour cells (NCI), 48 h
[1] = test system: UO-31 renal
[2] = test system: HOP-62 NSCLC
[3] = test system: SW-620 colon
[4] = test system: HS 578T breast
[5] = test system: SK-MEL-28 melanoma
[6] = test system: SK-OV-3 ovarian
[7] = test system: ACHN renal
[8] = test system: NCI-H522 lung
[9] = test system: CCRF-CEM leukemia
[10] = test system: SR leukemia

SMILES | TGI [1] | TGI [2] | TGI [3] | TGI [4] | TGI [5] | TGI [6] | TGI [7] | TGI [8] | TGI [9] | TGI [10] | GI50 [1] | GI50 [2] | GI50 [3] | GI50 [4] | GI50 [5] | GI50 [6] | GI50 [7] | GI50 [8] | GI50 [9] | GI50 [10]
CCCOc1ccc(-c2nc(-c3ccc(N=Cc4ccc(N(CCOS(C)(=O)=O)CCOS(C)(=O)=O)cc4C)cc3)cs2)cc1 | 48 µM | 43.7 µM | > 100 µM | > 90.9 µM | > 100 µM | 43.2 µM | 18.7 µM | 4.99 µM | > 100 µM | 57 µM | – | – | – | – | – | – | – | – | – | –
O=C(N/N=C/c1ccccc1O)C(O)(c1ccccc1)c1ccccc1 | > 100 µM | > 100 µM | > 100 µM | > 100 µM | > 100 µM | > 100 µM | > 100 µM | > 100 µM | > 100 µM | > 100 µM | 2 µM | 7.37 µM | > 100 µM | > 100 µM | > 100 µM | > 100 µM | 8.43 µM | 19.7 µM | 2.26 µM | 4.29 µM
C[C@H](N)C(=O)N[C@@H]1[C@H]2C(=C(O)C[C@@H](O)[C@@H]2O)C(=O)O[C@]1(C)C(Cl)Cl | 5.47 µM and 5.41 µM | 1.85 µM and 1.29 µM | 6.6 µM and 3 µM | 0.634 µM | 2.75 µM and 1.65 µM | 2.25 µM and 1.95 µM | 5.21 µM and 1.58 µM | 0.955 µM and 0.755 µM | 2.25 µM and 1.58 µM | 7.55 µM | 0.763 µM | 0.297 µM | 0.221 µM | – | – | 0.2 µM | 0.309 µM | 0.191 µM | 0.108 µM and 0.087 µM | 0.255 µM
CN1CCC(CNc2ccc3ncc(-c4cccc(OC(F)(F)F)c4)n3n2)CC1 | 2.59 µM and 3.04 µM | 4.25 µM and > 10 µM | 4.77 µM and 6.09 µM | 4.5 µM and 7.17 µM | 2.99 µM and 3.14 µM | 4.98 µM and > 10 µM | 6.05 µM and > 10 µM | 3.33 µM and 3.57 µM | 15.9 µM and 5.78 µM | 5.24 µM and 4.46 µM | 1.16 µM and 1.24 µM | 1.84 µM and 3.44 µM | 2.03 µM and 2.13 µM | 1.66 µM and 1.63 µM | 1.55 µM and 1.61 µM | 1.89 µM and 3.94 µM | 2.14 µM and 3.05 µM | 1.64 µM and 1.52 µM | 3.36 µM and 2.03 µM | 1.9 µM and 1.7 µM
O=C1/C=C/[C@@H](O)[C@@H]2C[C@@H](O)C[C@H]2/C=C/CCC[C@H](CCc2ccc(C(F)(F)F)cc2)O1 | – | 11 µM | 1.27 µM | > 27.2 µM | 0.361 µM | 30.2 µM | > 100 µM | 0.775 µM | 49 µM | 3.16 µM | 0.259 µM | 0.328 µM | 0.297 µM | 0.0602 µM | 0.0405 µM | 0.279 µM | 0.41 µM | 0.282 µM | 0.314 µM | 0.311 µM
COc1ccc(-c2nsc3c2NC(=O)CC3c2ccc(F)cc2)cc1 (stereo unspecified) | > 100 µM | 49 µM | > 100 µM | > 73.8 µM | > 100 µM | > 100 µM | > 100 µM | 15.6 µM | > 100 µM | > 100 µM | 4.59 µM | 7.06 µM | 2.77 µM | 4.48 µM | 4.74 µM | 4.59 µM | 6.73 µM | 2.52 µM | 5.27 µM | 1.1 µM
CC1=C(C(=O)Nc2ccccc2C)C(c2ccc(C3C(C(=O)Nc4ccccc4C)=C(C)NC(C)=C3C(=O)Nc3ccccc3C)cc2)C(C(=O)Nc2ccccc2C)=C(C)N1 | 26.7 µM | 42.1 µM | 6.3 µM | 55.3 µM | 4.26 µM | 28.8 µM | 16 µM | 3.72 µM | 7.82 µM | 8.56 µM | – | – | – | – | – | – | – | – | – | –
CCN1C(=O)N(CC)C2C1NN=c1s/c(=C\c3ccccc3F)c(=O)n12 (stereo unspecified) | > 69.4 µM | > 100 µM | > 100 µM | > 100 µM | > 100 µM | 77.5 µM | > 100 µM | 1.3 µM | > 100 µM | > 74.7 µM | 0.17 µM | 0.0545 µM | 0.0379 µM | 0.0345 µM | 62.4 µM | 0.054 µM | 0.0522 µM | 0.0192 µM | 0.0386 µM | 0.0278 µM
Cc1ncc(C(=O)Nc2ccc(CN3CCN(C)CC3)c(C(F)(F)F)c2)cc1C#Cc1cnc(N)c2cnccc12 | 1.15 µM | 1.34 µM | 1.39 µM | 0.696 µM | 0.376 µM | 0.763 µM | 1.03 µM | 13.1 µM | 3.46 µM | 1.92 µM | 0.289 µM | 0.0854 µM | 0.0649 µM | 0.058 µM | 0.0181 µM | 0.162 µM | 0.133 µM | 0.0654 µM | 0.0906 µM | 0.0456 µM
CO/[N+]([O-])=C\C(=O)N/C=C/C(=O)O | > 100 µM | > 100 µM | > 100 µM | > 100 µM | > 100 µM | > 100 µM | > 100 µM | > 100 µM | > 100 µM | > 100 µM | – | – | – | – | – | – | – | – | – | –
O=C(CCCCCCCn1cc(-c2cccnc2)nn1)Nc1ccccc1-c1ccccc1 | 47 µM | > 100 µM | > 100 µM | > 100 µM | > 95 µM | > 100 µM | > 100 µM | – | > 100 µM | 64.8 µM | 5.24 µM | 26.2 µM | 0.0526 µM | 7.22 µM | 13.2 µM | 12.5 µM | 9.39 µM | 0.0508 µM | 0.435 µM | 3.65 µM
Sc1ccc2ccccc2c1CNCc1ccccc1 | 26.9 µM | 34.9 µM | > 100 µM | 67.2 µM | 69.7 µM | 41.1 µM | 57.9 µM | 18.3 µM | 54.1 µM | 15.4 µM | – | – | – | – | – | – | – | – | – | –
